pEC50, pIC50: −log10 of the molar value.
Legend:
HL-60 [1] = experiment: Growth inhibition of human HL60 cells at 20 uM after 69 hrs; assay type: functional; details: HL-60, 69 h, read-out: GI
MCF7 [2] = experiment: Growth inhibition of human MCF7 cells at 20 uM after 72 hrs by MTT assay; assay type: functional; details: MCF7, 72 h, read-out: GI
MCF7 [3] = experiment: Antiproliferative effect against human MCF7 cells after 72 hrs by MTT assay; assay type: functional, cell-based; details: MCF7, 72 h
HeLa [4] = experiment: Antiproliferative effect against human HeLa cells after 69 hrs by MTT assay; assay type: functional, cell-based
HL-60 [5] = experiment: Antiproliferative effect against human HL60 cells after 69 hrs; assay type: functional, cell-based; details: HL-60, 69 h
HeLa [6] = experiment: Growth inhibition of human HeLa cells at 20 uM after 69 hrs by MTT assay; assay type: functional; details: read-out: GI
MCF7 [7] = experiment: Promotion of cell proliferation in human MCF7 cells; assay type: functional, cell-based
Estrogen receptor = molecular target: T1, Estrogen receptor (Homo sapiens, UniProt P03372); experiment: Agonist activity at human ERalpha expressed in african green monkey CV1 cells by luciferase reporter gene assay relative to 17beta estradiol; assay type: functional, cell-based, CV-1
T1 sequence (P03372 whole entry): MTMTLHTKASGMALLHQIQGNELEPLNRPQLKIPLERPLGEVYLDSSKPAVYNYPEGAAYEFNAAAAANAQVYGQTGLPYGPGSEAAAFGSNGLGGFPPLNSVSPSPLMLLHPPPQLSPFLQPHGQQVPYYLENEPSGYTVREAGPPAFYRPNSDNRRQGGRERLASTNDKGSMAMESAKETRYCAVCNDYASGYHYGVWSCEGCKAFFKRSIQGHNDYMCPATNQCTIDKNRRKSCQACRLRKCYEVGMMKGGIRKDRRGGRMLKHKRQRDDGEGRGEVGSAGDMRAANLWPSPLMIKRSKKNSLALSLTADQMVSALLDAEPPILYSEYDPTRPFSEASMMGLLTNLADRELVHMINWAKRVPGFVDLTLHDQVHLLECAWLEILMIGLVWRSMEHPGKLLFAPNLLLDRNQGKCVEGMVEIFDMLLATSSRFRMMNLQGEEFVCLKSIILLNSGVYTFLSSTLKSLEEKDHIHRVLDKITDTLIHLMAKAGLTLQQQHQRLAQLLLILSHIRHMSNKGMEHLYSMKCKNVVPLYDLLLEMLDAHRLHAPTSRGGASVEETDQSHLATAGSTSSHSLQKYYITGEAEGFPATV

pIC50 (MCF7 [3])	pIC50 (HeLa [4])	pIC50 (HL-60 [5])	pEC50 (MCF7 [7])	pEC50 (Estrogen receptor)	SMILES	inhibition of growth at 20 µM (HL-60 [1])	inhibition of growth at 20 µM (MCF7 [2])	inhibition of growth at 20 µM (HeLa [6])
5.41	4.95	5.74	–	–	C=C1C(=O)OC[C@H]1C(c1cc(OC)c2c(c1)OCO2)c1cc(OC)c2c(c1)OCO2 [PEPEROMIN E]	93%	90.7%	95%
–	–	–	–	–	COc1cc(C(c2cc(OC)c3c(c2)OCO3)[C@@H]2COC(=O)[C@H]2C)cc2c1OCO2 [PEPEROMIN A]	17%	27.7%	< 5%
–	–	–	–	–	COc1cc(OC)c(C2CCC(=O)c3c(OC)cc(OC)c(OC)c32)cc1OC (stereo not given)	< 5%	37.6%	< 5%
6.72	5.44	6.68	–	–	COc1cc([C@@H]2c3cc4c(cc3[C@@H](O[C@@H]3O[C@@H]5CO[C@@H](C)O[C@H]5[C@H](O)[C@H]3O)[C@H]3COC(=O)[C@H]23)OCO4)cc(OC)c1O [ETOPOSIDE]	93.5%	73.5%	85.3%
–	–	4.97	–	–	COc1cc(C(c2cc(OC)c3c(c2)OCO3)[C@@H]2COC(=O)[C@H]2C)cc(O)c1OC (relative stereo)	92%	53.2%	10%
5.42	5.04	5.85	–	–	C=C1C(=O)OCC1C(c1cc(OC)c(OC)c(OC)c1)c1cc(OC)c2c(c1)OCO2 (stereo not given)	92%	91%	96%
–	–	–	6.85	5.51	COc1cc([C@H]2O[C@@H](c3cc(OC)c4c(c3)OCO4)[C@@H](CO)[C@@H]2COC(C)=O)cc2c1OCO2	–	–	–

From ChEMBL document CHEMBL1157251, “Bioactive compounds from Peperomia pellucida” (J Nat Prod, 2006)
